Laboratory results taken from patent US20050118226A1, “Methods for treating ACAT-related diseases” (priority 2003, published 2005).
Entries after “also recorded” stand apart in the source; their conditions may differ.

Assays:
[1] = tested on: adrenal cortical cells; assay: Adrenal gland histology (hematoxylin and eosin) for CP-113,818 toxicity in hAPP mice; type: in vivo; conditions: 7.2 mg/kg per day, two months, 7.2 mg/kg/day
Protocol: Animals were sacrificed the day after the last MWM training, on day 57 of treatment. Blood was obtained by cardiac puncture and total serum was used for cholesterol determination. Transcardiac perfusion with 4C PBS was performed, followed by dissection. Brains were removed, divided along the sagittal plane and then either frozen in liquid nitrogen or imersion fixed with 4% paraformaldehyde for histologic evaluation. Liver was frozen in liquid nitrogen, and adrenal glands were fixed in 4% paraformaldehyde followed by standard paraffin embedding and sectioning. Hematoxylin and eosin stained 6-8 um sections were analyzed for evidence of CP-113,818 toxicity.
To characterize the effect of CP-113,818 treatment on AD-like pathology, we used hAPP mice that express human APP751 containing the London (V717I) and Swedish (K670M/N671L) mutations under the regulatory control of the murine Thy-1 promoter (mThy1-hAPP751) (Rockenstein et al., 2001). These animals develop detectable plaques in the neocortex and hippocampus at the ages of 4 and 6 months, respectively, and show memory deficits starting at 6 months of age. […] Therefore, we included similar numbers of male and female animals in both placebo and CP-113,818 groups to detect possible gender-specific effects of the inhibitor in our mouse model. […]

[2] = tested on: APP; assay: Western blot of APP and fragments in formic acid brain extracts of hAPP mice; type: in vivo, mouse
Protocol: For Western blot analyses, frozen hemispheres of non-transgenic littermates were homogenized in TBS buffer containing 5 mM EDTA, 1 mM 1,10-phenanthroline (ICN Biomedicals), 20 μM ALLN (BioMol) and a protease inhibitor mixture (Roche). Homogenates were centrifuged at 100000 g for 1 hour at +4° C. The supernatants were used for analyses of secreted APP forms and ApoE, while the pellets extracted with the homogenization buffer containing 1% Triton X-100 and 0.2% SDS. 120 μg of total protein were resolved on 4-12% or 12% NuPAGE Bis-Tris gels (Invitrogen) under reducing conditions, and Western blots were performed as described previously (Puglielli et al., 2001). For analysis of Notch-ICD (NICD), 250 μg of total protein was immunoprecipitated with an NICD-specific antibody (cleavage site (Val1744)-specific; Cell Signaling Technology) according to manufacturer's recommendations. […] Densitometric analyses were performed using the QuantityOne software package (Bio-Rad). Statistical significance was determined by Student's t test. […]

[3] = tested on: γ-secretase complex components and substrates, BACE1, ApoE; assay: Western blot of γ-secretase components and substrates, BACE1 and ApoE in non-transgenic littermates; type: in vivo, mouse
Protocol: For Western blot analyses, frozen hemispheres of non-transgenic littermates were homogenized in TBS buffer containing 5 mM EDTA, 1 mM 1,10-phenanthroline (ICN Biomedicals), 20 μM ALLN (BioMol) and a protease inhibitor mixture (Roche). Homogenates were centrifuged at 100000 g for 1 hour at +4° C. The supernatants were used for analyses of secreted APP forms and ApoE, while the pellets extracted with the homogenization buffer containing 1% Triton X-100 and 0.2% SDS. 120 μg of total protein were resolved on 4-12% or 12% NuPAGE Bis-Tris gels (Invitrogen) under reducing conditions, and Western blots were performed as described previously (Puglielli et al., 2001). For analysis of Notch-ICD (NICD), 250 μg of total protein was immunoprecipitated with an NICD-specific antibody (cleavage site (Val1744)-specific; Cell Signaling Technology) according to manufacturer's recommendations. Antibodies used for Western blots were R1736 (specific for sAPP-α; a gift from Dr. D. J. Selkoe, Brigham and Women's Hospital, Boston, Mass.), Abl4 (PS 1-NTF; a gift from Dr. S. E. Gandy, Thomas Jefferson University, Philadelphia, Pa.), Pen2 (a gift from Dr. S. S. Sisodia, University of Chicago, Chicago, Ill.), N-Cadherin (C32, C-terminal; BD Transduction Laboratories), ApoE (Santa Cruz Biotechnology), β-tubulin (Sigma), BACE1 and Nicastrin (Affinity BioReagents). Rbt×APP (CTF), 22C11 (APP-NTF) and Rbt×PSI (PS 1-CTF) were from Chemicon International. BACE stainings (N-terminal; Affinity BioReagents) were confirmed with two additional antibodies; Ms×BACE1 (Chemicon International) and BACE (C-terminal; Affinity BioReagents). Densitometric analyses were performed using the QuantityOne software package (Bio-Rad). Statistical significance was determined by Student's t test. For Western blot analyses shown in supplemental figures, neutralized formic acid fractions (approximately 100 μg of total protein) were precipitated by adding 50% trichloroacetic acid to 15.5% final concentration. After 30 min incubation and centrifugation at 4° C., the pellets were solubilized by adding 10 μl of 2M Tris base and 10 μl of 4×LDS-PAGE loading buffer (NuPage, Invitrogen). Before loading, the samples were incubated for 30 min at 37° C., freeze-thawed once and boiled. Western blot analysis was performed as described above.
Our previous cell-based studies have shown that ACAT inhibition reduces Aβ generation and alters APP processing by all three secretases (Puglielli et al., 2001). To determine whether CP-113,818 treatment modified brain APP processing in hAPP mice, we initially resolved formic acid-extracted brain proteins by SDS-PAGE to detect APP and its proteolytic derivatives. […] However, levels of the secreted cleavage products of both α- and β-secretases (sAPP) were reduced by treatment with the ACAT inhibitor albeit not nearly as dramatically as Aβ (FIG. 9). Inhibition of sAPP production in the absence of a change in CTFs was somewhat surprising, and possibly an artifact caused by formic acid extraction. Because tissue from treated hAPP mice had been extracted with formic acid or fixed for histological studies, we looked at levels of APP-CTFs in total brain lysates from the non-transgenic littermates used in the Morris water maze tests. Using non-transgenic animals for these experiments also afforded an assessment of the effects of CP-113,818 on endogenous APP processing. CP-113,818 reduced liver cholesterol/cholesteryl-esters and serum cholesterol of non-transgenic littermates similarly to the transgenic animals shown in FIG. 1C (data not shown). Endogenous mouse APP-CTF levels in brain lysates from CP-113,818-treated animals decreased by 44% when compared to placebo-treated mice (n=8, p<0.005, values normalized to APP holoprotein levels; FIG. 10A, B). We could not resolve C99 and C83 from these samples due to smearing in the low molecular weight range because of high protein load (FIG. 10A). […]

[4] = tested on: γ-secretase; assay: In vitro generation of APP intracellular domain (AICD), γ-secretase activity assay on CHO cell membrane fractions; type: biochemical, Chinese hamster; conditions: CHO cell (overexpressing APP) membrane fractions, increasing amounts of compound
Protocol: Membrane preparation and in vitro generation of AICD were performed as described (Gu et al., 2001; Kim et al., 2002). P2 membrane fractions were prepared from CHO cells overexpressing wild type APP and resuspended in Buffer H (20 mM HEPES, 150 mM NaCl, 10% glycerol, 5 mM EDTA, pH 7.4) with protease inhibitors. In vitro cleavage experiments were performed by incubating the membrane fractions at 0° C. or 37° C. for 1 hour with the indicated amounts of CP-113,818. As a negative control, a specific γ-secretase inhibitor, L-685,458, was added to one of the samples.

[5] = rat, in vivo; cited from earlier work

CCCCCCCC[C@H](SCCCCCC)C(=O)Nc1c(SC)cc(C)nc1SC [CP-113,818]
adrenal toxicity (vacuolization in cytoplasm of adrenal cortical cells) [1]: no histologic evidence of toxicity; also recorded: did not show signs of vacuolization
full-length APP and APP C-terminal fragments C83 and C99 [2]: unchanged
decrease of sAPP levels ([2]; adjusted to full-length APP): 60%
Notch intracellular domain (NICD) levels ([3]; immunoprecipitated from non-transgenic mouse brain lysates): statistically unchanged; also recorded: remained unchanged
BACE protein levels ([3]; non-transgenic brain lysates): unchanged; also recorded: did not alter expression levels
levels of N-cadherin-CTF1 ([3]; non-transgenic brain lysates): unaffected; also recorded: remained unchanged
levels of PS1 N- and C-terminal fragments, nicastrin, and pen-2 ([3]; non-transgenic brain lysates): did not detect significant changes
nicastrin maturation / maturation of γ-secretase complex ([3]; non-transgenic brain lysates): unaffected; also recorded: did not alter maturation
expression of ApoE ([3]; non-transgenic littermates, soluble TBS fraction): unchanged; also recorded: did not alter expression levels
effect on γ-secretase activity (AICD generation) in vitro [4]: unaffected; also recorded: no direct effect
tolerated dose [5]: 150 mg/kg per day
